Data from patent publication US20100247659A1, “PHENYLPHTHALIMIDE ANALOGS FOR TREATING DIABETIC MACULAR EDEMA” (Charlesson, LLC, priority 2007, published 2010).

How the values were obtained:
[1] = tested on: normal BN rats; experiment: Ocular toxicity, ERG recording; format: in vivo, rat; details: 2 μg/eye intravitreal, weeks 1-4
Experimental: Electroretinogram (ERG) recording: Full-field ERGs were recorded by Espion E^2 ERG system (Diagnosys LLC) as described previously (Rohrer, Journal of Neuroscience, 1999, 19: […]) by two protocols: (A) 10 ms flashes of increasing light intensities under scotopic and photopic conditions, and (B) 2 Hz flicker ERG under photopic conditions. BN rats received an intravitreal injection of Compound 4 (2.0 μg/eye, 5 μl/eye of 0.4 mg/ml in BN rat serum) or equal amount of BN rat serum, respectively. At various intervals after injection, the peak a-wave amplitude was measured from baseline to the initial negative-going voltage, whereas peak b-wave amplitude was measured from the trough of the a-wave to the peak of the positive b-wave. Flicker amplitudes were measured from the preceding trough to the peak of the flicker response. Data was expressed as mean±SD and compared between the compound-injected eyes and control eyes by the paired Student's t-test.
To test the potential ocular toxicities of Compound 4, normal rats at age of 8 weeks received an intravitreal injection of a high dose of Compound 4, 2 μg/eye (5 μl/eye of 0.4 mg/ml in BN rat serum) or an equal amount of BN rat serum as the vehicle control. Prior to study initiation, and after weeks 1, 2, 3, and 4 following the injection, visual function was evaluated by ERG recording. […]

[2] = tested on: normal BN rats; experiment: Ocular toxicity, histological analysis of the retina; format: in vivo, rat; details: 2 μg/eye intravitreal, 4 weeks
Experimental: Histological analysis of the retina: To test the potential ocular toxicity of Compound 4, 8 week old normal BN rats received an intravitreal injection of Compound 4 (2.0 μg/eye, 5 μl/eye of 0.4 mg/ml in BN rat serum) or equal amount of BN rat serum, respectively. At various intervals after injection, the animals were sacrificed. The eyes then were removed, fixed in 4% formaldehyde, embedded in paraffin, and cut into 6-μm sections containing the whole retina. Paraffin-embedded sections were stained with hematoxylin-eosin (HE) and were examined.
Possible toxicities of CLT-033 were also examined using pathohistological examination 4 weeks after the drug administration. Retinal cross sections stained with H&E were examined under a light microscope.
Eight weeks old BN rats were received an intravitreal injection of Compound 4 (2.0 μg/eye, 5 μl/eye 0.4 mg/ml in BN rat serum) or equal amount of BN rat serum respectively (n=6). ERG was performed prior to study initiation and 1, 2, 3 and 4 weeks after the injection. Data shown no dramatic change in the a-wave and b-wave amplitudes in Compound 4-injected rats compared to vehicle-injected rats (FIG. 18A-18C). The animals were sacrificed 4 weeks after injection. The eye sections were observed under microscope with HE staining.

[3] = Drying at elevated temperature; format: physicochemical; details: 70° C., 89 h
Experimental: Synthesis of Compound 4 was successfully carried out via catalytic hydrogenation and via transfer hydrogenation. Catalytic hydrogenation required a longer reaction time (24 h) under 45-50 psi. This method requires specialized equipment. […] Scale-up of this reaction gave 99.2% pure material in 91% yield.
A 12 L, 3-neck round bottom flask, equipped appropriately and under nitrogen, was charged with a slurry of 10% palladium on carbon (24.5 g, 10% (w/w)) in ethanol (200 proof, 1 L). To this slurry was charged (2,6-diisopropylphenyl)-5-nitro-1H-isoindole-1,3-dione (245.0 g, 0.70 mol) followed by ethanol (200 proof, 2.92 L, 3.92 L total, 16 mL/g) and triethylamine (311.7 g, 3.08 mol, 4.40 eq). Formic acid (135.8 g, 2.95 mol, 4.22 eq) was added slowly over 25 min. The slurry was heated to reflux and the reaction progress was monitored by HPLC. At 3.5 h, the mixture was filtered through a Celite bed to remove the catalyst. The filter bed was rinsed with ethanol (200 proof, 4×175 mL). The filtrate was then clarified through Whatman filter paper to remove any particulates. Ethanol (200 proof, 2×150 mL) was used as a rinse. To the solution was added water (deionized, 3.92 L), over 45 min. The resulting slurry was stirred at ambient temperature overnight. The following day, the slurry was cooled to 0-10° C. for 2 h. […]

[4] = tested on: OIR rats; experiment: Retinal NV in OIR rats, fluorescein angiography; format: in vivo, rat
Excerpt: Induction of oxygen-induced retinopathy (OIR): Induction of OIR followed the procedure as described by Smith et al (Smith, et al. Invest. Opthalmol. Vis. Sci. 1994, 35: 101-111) with some modifications. Briefly, Newborn Brown Norway (BN) rats (Charles River Laboratories) at postnatal day 7 (P7) were exposed to hyperoxia (75% O2) for 5 days (P7-12) and then returned to normoxia (room air) to induce retinopathy.
Retinal angiography with high-molecular-weight fluorescein: High molecular weight fluorescein-dextran was used in retinal angiography as described by Smith et al (Smith, et al. Invest. Opthalmol. Vis. Sci. 1994, 35:101-111). Briefly, animals were anesthetized with ketamine (100 mg/kg of body weight) plus acepromazine (5 mg/kg of body weight) and then perfused through the left ventricle with 50 mg/ml of high molecular weight fluorescein-dextran in PBS. The eyes were marked for orientation, enucleated, and fixed in 4% paraformaldeyde for 3-24 h. Several incisions were made and the retinas were flat-mounted on a gelatin-coated slide. The vasculature was then examined under a fluorescent microscope. Both the total retinal area and the area of the avascular regions were measured using a computerized image-analysis system and averaged within each group.
Newborn BN rats were exposed to 75% oxygen from age P7 to P12. […]

Row | SMILES | ERG a-wave and b-wave amplitudes [1] | retinal morphology, H&E sections [2] | stability on drying [3] | inhibition of retinal NV ([4]; 1.0 μg/eye intravitreal, evaluated P20) | effect on retinal NV, angiographs (FIG. 9) ([4]; 5 μl of 0.8 mM per eye, angiography)
1 | CC(C)c1cccc(C(C)C)c1N1C(=O)c2ccc(N)cc2C1=O [Compound 4] | no detectable change in the a-wave and b-wave amplitudes | No apparent morphological change or immunoresponse | does not cause decomposition |  | 
2 | O=C1CCC(N2C(=O)c3ccccc3C2=O)C(=O)N1 (centres unmarked) [thalidomide] |  |  |  | lacked significant inhibition of retinal NV | did not reduce the NV
